Our source for the pKi values is ChEMBL document CHEMBL1151914, “3D-QSAR studies of 2,2-diphenylpropionates to aid discovery of novel potent muscarinic antagonists” (Bioorg Med Chem, 2009).

Some results are limits rather than exact numbers.

This experiment can be described thus: Inhibition of [3H]NMS binding to muscarinic receptor in mouse N4TG1 neuroblastoma cells.
In turn, `CN1CC2CC1C[C@H](OC(=O)C(C)(c1ccccc1)c1ccccc1)C2` (stereo partly drawn) gave a pKi of 8.3. For the molecule `CN1CCCC(COC(=O)C(C)(c2ccccc2)c2ccccc2)C1` (stereo not drawn), the pKi is 7.8.

The molecule `CC[N+]1(CCOC(=O)C(CO)c2ccccc2)CCCCC1` (stereo not drawn) came in with a pKi of 8.7. `C[n+]1cscc1C(C)(C)OC(=O)c1ccccc1` returned a pKi of 5.5. `CN1CCC(OC(=O)C(C)(c2ccccc2)c2ccccc2)CC1` came in with a pKi of 8.8. `CN1CCC(OC(=O)C(CO)c2ccc(C(F)(F)F)cc2)CC1` (stereo not drawn) displayed a pKi of 7.7. The value for `CC(C)N(COC(=O)c1ccc(N)cc1)C(C)C` was 5.3; that for `CN1CCCCC1COC(=O)C(C)(c1ccccc1)c1ccccc1` (stereo not drawn) was 6.8. `CC[N+](C)(CC)CC(=O)Nc1ccc(Cl)c(Cl)c1`: the pKi was above 3.33. In the case of `CN1CCC(COC(=O)C(C)(c2ccccc2)c2ccccc2)CC1`, the pKi stood at 7.7. With `CN1CCC(OC(=O)C(C)(c2ccccc2)c2ccccc2)C1` (stereo not drawn), the pKi is 7.8.

Molecule `CC(C(=O)OCCN1CCCCC1)(c1ccccc1)c1ccccc1` had a pKi of 8.2.

On to `CN1CCCC1CCOC(=O)C(C)(c1ccccc1)c1ccccc1` (stereo not drawn), for which the negative-log Ki (pKi) was found to be 8. For `C[N+](C)(C)CC#CC(O)(c1cccs1)C1CCCC1` (stereo not drawn), the pKi turned out to be 7.1.

Turning to `C[N+](C)(C)CCOC(=O)C(c1ccccc1)c1ccccc1`, the pKi is given as 7.1. With `CCN1CCC(OC(=O)C(C)(c2ccccc2)c2ccccc2)CC1` the figure was 9.

On to `CC(C(=O)OCCN1CCCC1)(c1ccccc1)c1ccccc1`, for which the pKi was determined as 8.2. Turning to `CCN1CCCC(OC(=O)C(C)(c2ccccc2)c2ccccc2)C1` (stereo not drawn), the pKi was found to be 6.3. With `CN1CCC2CC1C[C@@H](OC(=O)C(C)(c1ccccc1)c1ccccc1)C2` (stereo partly drawn), the pKi stood at 8.3. The value for `CCN1CCC(COC(=O)C(C)(c2ccccc2)c2ccccc2)CC1` was 6.9; that for `CN1C2CC[C@H]1C[C@@H](OC(=O)C(C)(c1ccccc1)c1ccccc1)C2` was 8.4. Consider `CCN(CC)CCOC(=O)C(C)(c1ccccc1)c1ccccc1` [APROFENE], for which the pKi was 8.2. With `CN1[C@@H]2CC[C@H]1C[C@@H](OC(=O)C(CO)c1ccccc1)C2` (stereo partly drawn) [ATROPINE] the figure was 8.4.
